Laboratory results: patent US8563053B2, “Compositions and methods of natural products in nanoformulations for the prevention and treatment of osteoporosis” (priority 2009, dated 2013)

Assays:
postmenopausal women = assay: Postmenopausal women with high versus low dietary intake / serum lycopene: oxidative stress and bone markers; type: in vivo, human; conditions: women with higher serum lycopene
Text: Work of the inventors of the present invention, both experimental work and work with humans, provides evidence for a positive effect of the potent antioxidant “Lycopene” on bone health.

[1] = system: healthy postmenopausal women; assay: Supplementation of healthy postmenopausal women with lycopene: oxidative stress and bone turnover markers; type: in vivo, human; conditions: 30 mg/day for 6 months

## CC(C)=CCC/C(C)=C/C=C/C(C)=C/C=C/C(C)=C/C=C/C=C(C)/C=C/C=C(C)/C=C/C=C(\C)CCC=C(C)C [lycopene]
Postmenopausal women
  bone formation markers (s-Osteocalcin and bone-specific ALP): improve
  bone resorption markers (u-NTX, s-CTX): improve
  oxidative stress (lipid and protein oxidation, catalase and superoxide dismutase activities): reduced oxidative stress
[1]; bone formation marker
  s-BALP: increases
  s-OC: increases
[1]; bone resorption marker
  s-CTX: significant decreases
  u-NTX: significant decreases
[1]; healthy postmenopausal women
  bone turnover markers: significantly improved
  oxidative stress: significantly improved
